According to ChEMBL document CHEMBL5579891, “A Glycyrrhizin Derivative with a More Potent Inhibitory Activity against High-Mobility Group Box 1 Efficiently Discovered by Chemical Synthesis Inspired by the Bioconversion Products of an Endophytic Fungus Isolated from Licorice” (J Med Chem, 2024):
The source made the active and inactive calls. No cut-off for these calls is given here.

Assays:
[1] = Drug uptake in brain of male ddY mouse model of collagenase induced intracerebral hemorrhage assessed as appearance of unchanged form of drug by measuring retention time at 100 mg/kg, po pretreated with collagenase for 20 mins followed by compound administration via oral gavage and measured at 24 hrs by LC-MS analysis; format: ADME, organism-based; conditions: in vivo
Mus musculus [2] = assay: (§1) In vivo inhibition of HMGB1 in male ddY mouse model of collagenase induced intracerebral hemorrhage assessed as reduction in AQP4 protein level at 100 mg/kg, po pretreated with collagenase for 20 mins followed by compound administration via oral gavage and measured at 24 hrs by Western blot analysis; format: functional, organism-based
Mus musculus [3] = assay: Suppression of IL-1beta mRNA expression in po dosed male ddY mouse model of collagenase induced intracerebral hemorrhage pretreated with collagenase for 20 mins followed by compound administration via oral gavage and measured at 24 hrs by qRT-PCR analysis; format: functional, organism-based; conditions: dose 50-100 mg/kg
Mus musculus [4] = assay: as §1, with “brain water content in ipsilateral hemisphere” for “AQP4 protein level”, “hrs” for “hrs by Western blot analysis”; format: functional, organism-based
Mus musculus [5] = assay: Effect on brain water content in contralateral hemisphere in male ddY mouse model of collagenase induced intracerebral hemorrhage at 100 mg/kg, po pretreated with collagenase for 20 mins followed by compound administration via oral gavage and measured at 24 hrs; format: functional, organism-based
[6] = Solubility of compound at >10 uM; format: physicochemical
Mus musculus [7] = assay: Neuroprotective activity in male ddY mouse model of collagenase induced intracerebral hemorrhage assessed as rescue of ICH-induced neuronal loss by measuring increase in NeuN-positive neurons in periphery of […] at 100 mg/kg, po pretreated with collagenase for 20 mins followed by compound administration via oral gavage and measured at 24 hrs by immunohistochemical staining based analysis; format: functional, organism-based
Peritoneal macrophage [8] = assay: Suppression of HMGB1-induced IL-1beta mRNA expression in male ddY mouse Peritoneal macrophage cells at 10 uM incubated for 2 hrs in presence of RU486 by qRT-PCR analysis; format: functional, cell-based
Mus musculus [9] = assay: Effect on hematoma size in male ddY mouse model of collagenase induced intracerebral hemorrhage at 100 mg/kg, po pretreated with collagenase for 20 mins followed by compound administration via oral gavage and measured at 24 hrs; format: functional, organism-based
Mus musculus [10] = assay: Effect on brain water content in cerebellum in male ddY mouse model of collagenase induced intracerebral hemorrhage at 100 mg/kg, po pretreated with collagenase for 20 mins followed by compound administration via oral gavage and measured at 24 hrs; format: functional, organism-based
Peritoneal macrophage [11] = assay: Suppression of HMGB1-induced IL-1beta mRNA expression in male ddY mouse Peritoneal macrophage cells at 10 uM incubated for 2 hrs by qRT-PCR analysis; format: functional, cell-based
Peritoneal macrophage [12] = assay: Suppression of HMGB1-induced IL-1beta mRNA expression in male ddY mouse Peritoneal macrophage cells at 10 nM incubated for 2 hrs in presence of RU486 by qRT-PCR analysis; format: functional, cell-based
RAW264.7 [13] = assay: Cytotoxicity against mouse RAW264.7 cells at 100 uM measured after 2 hrs by LDH assay; format: toxicity, cell-based; conditions: raw264.7, 2 h
RAW264.7 [14] = assay: Cytotoxicity against mouse RAW264.7 cells at 30 to 100 uM measured after 2 hrs by LDH assay; format: toxicity, cell-based; conditions: raw264.7, 2 h, dose 30-100 µM

COC(=O)[C@@]1(C)CC[C@]2(C)CC[C@]3(C)C(=CC(=O)[C@@H]4[C@@]5(C)CCC(=O)C(C)(C)[C@@H]5CC[C@]43C)[C@@H]2C1
Retention_time [1]: 11.3 min
inhibition (Mus musculus [2]): Active
Activity (Mus musculus [3]): Dose-Dependent Effect
inhibition (Mus musculus [4]): Active
Activity (Mus musculus [5]): inactive
solubility [6]: Insoluble
Activity (Mus musculus [7]): Active
Activity (Peritoneal macrophage [8]): Active
Activity (Mus musculus [9]): inactive
Activity (Mus musculus [10]): inactive
Activity (Peritoneal macrophage [11]): Active

C[C@]12CCC(=O)C=C1CC[C@@H]1[C@@H]2[C@@H](O)C[C@@]2(C)[C@H]1CC[C@]2(O)C(=O)CO
Activity (Peritoneal macrophage [12]): inactive

CC1(C)C(=O)CC[C@]2(C)[C@H]3C(=O)C=C4[C@@H]5C[C@@](C)(C(=O)O)CC[C@]5(C)CC[C@@]4(C)[C@]3(C)CC[C@@H]12
Activity (RAW264.7 [13]): Toxic

CC1(C)[C@@H](O[C@H]2O[C@H](C(=O)O)[C@@H](O)[C@H](O)[C@H]2O[C@@H]2O[C@H](C(=O)O)[C@@H](O)[C@H](O)[C@H]2O)CC[C@]2(C)[C@H]3C(=O)C=C4[C@@H]5C[C@@](C)(C(=O)O)CC[C@]5(C)CC[C@@]4(C)[C@]3(C)CC[C@@H]12
Activity (Peritoneal macrophage [11]): Active

CC1(C)[C@@H](O)CC[C@]2(C)[C@H]3C(=O)C=C4[C@@H]5C[C@@](C)(C(=O)O)CC[C@]5(C)C[C@H](O)[C@@]4(C)[C@]3(C)CC[C@@H]12
Activity (Peritoneal macrophage [11]): inactive

CC1(C)[C@@H](O)CC[C@]2(C)[C@H]3C(=O)C=C4[C@@H]5C[C@@](C)(C(=O)O)CC[C@]5(C)CC[C@@]4(C)[C@]3(C)CC[C@@H]12 [ENOXOLONE]
Activity (RAW264.7 [14]): Toxic

CC1(C)C(=O)CC[C@]2(C)[C@H]3C(=O)C=C4[C@@H]5C[C@@](C)(C(=O)O)CC[C@]5(C)C[C@H](O)[C@@]4(C)[C@]3(C)CC[C@@H]12
Activity (RAW264.7 [13]): Toxic
Activity (Peritoneal macrophage [11]): inactive
